Data: the supplement of paper PMC11061612

Key:
Test in all cases: Bliss excess, mean over the matrix (fraction); higher = more synergy
[1] = system: 5637 (Bladder Carcinoma)
Method in brief: (§1)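 Bliss excess equals the observed combination effect minus the expected value EA + EB − EA·EB, where EA and EB are the effects of each agent alone. Combination Emax is the second-highest inhibition within the matrix. Inhibition was scaled from CellTiter-Glo 2.0 luminescence, with 0 set by vehicle wells and 1 by blank wells, after 72 hours of two-drug dosing of cells plated in 1536-well plates.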

[2] = system: A101D (Melanoma)
Method in brief: as §1

[3] = system: A253 (Head and Neck Carcinoma)
Method in brief: as §1

[4] = system: CA46 (Burkitt's Lymphoma)
Method in brief: as §1

[5] = system: CAL-27 (Oral Cavity Carcinoma)
Method in brief: as §1

[6] = system: CGTH-W-1 (Thyroid Gland Carcinoma)
Method in brief: as §1

[7] = system: COLO-792 (Melanoma)
Method in brief: as §1

[8] = system: ESO26 (Esophageal Adenocarcinoma)
Method in brief: as §1

[9] = system: EW-7 (Ewing's Sarcoma)
Method in brief: as §1

[10] = system: G-402 (Other Solid Carcinomas)
Method in brief: as §1

[11] = system: HCC1428 (Breast Carcinoma)
Method in brief: as §1

[12] = system: HCC70 (Breast Carcinoma)
Method in brief: as §1

[13] = system: IM-9 (Non-Cancerous)
Method in brief: as §1

[14] = system: JHU-022 (Oral Cavity Carcinoma)
Method in brief: as §1

[15] = system: KP-N-YN (Neuroblastoma)
Method in brief: as §1

[16] = system: LU-165 (Small Cell Lung Carcinoma)
Method in brief: as §1

[17] = system: NCI-H1651 (Lung Adenocarcinoma)
Method in brief: as §1

[18] = system: NCI-H2087 (Lung Adenocarcinoma)
Method in brief: as §1

[19] = system: RH-41 (Rhabdomyosarcoma)
Method in brief: as §1

[20] = system: SK-HEP-1 (Hepatocellular Carcinoma)
Method in brief: as §1

SMILES	Bliss excess [1]	Bliss excess [2]	Bliss excess [3]	Bliss excess [4]	Bliss excess [5]	Bliss excess [6]	Bliss excess [7]	Bliss excess [8]	Bliss excess [9]	Bliss excess [10]	Bliss excess [11]	Bliss excess [12]	Bliss excess [13]	Bliss excess [14]	Bliss excess [15]	Bliss excess [16]	Bliss excess [17]	Bliss excess [18]	Bliss excess [19]	Bliss excess [20]
NC1(C(=O)N[C@@H](CCO)c2ccc(Cl)cc2)CCN(c2ncnc3[nH]ccc23)CC1 [Capivasertib] + Cn1cnc2c(F)c(Nc3ccc(Br)cc3Cl)c(C(=O)NOCCO)cc21 [Selumetinib] (first compound max 10 µM, 7x7, partner max 10 µM)	-0.0187	0.0628	0.0591	0.0039	0.0108	0.0262	0.0139	0.0818	0.0429	0.0126	0.0149	0.18	-0.0169	-0.0397	0.053	-0.0404	-0.0156	0.016	0.0251	-0.0083
Cc1c2c(nn1C)CSCc1cc(n(C)n1)CSc1cc(c3ccccc3c1)OCCCc1c(C(=O)O)n(C)c3c-2c(Cl)ccc13 [AZD5991] + C1CN(CCC1(C(=O)N[C@@H](CCO)C2=CC=C(C=C2)Cl)N)C3=NC=NC4=C3C=CN4 [Capivasertib] (first compound max 1 µM, 7x7, partner max 3 µM)	-0.004	0.0252	0.0473	0.0205	0.0073	0.0091	0.0076	-0.0014	0.0459	0.0445	0.0136	0.0761	-0.0616	-0.0273	-0.0382	0.0034	0.0279	-0.0295	-0.0334	0.0194
CC1(C)CCC(CN2CCN(c3ccc(C(=O)NS(=O)(=O)c4ccc(NCC5CCOCC5)c([N+](=O)[O-])c4)c(Oc4cnc5[nH]ccc5c4)c3)CC2)=C(c2ccc(Cl)cc2)C1 [Venetoclax] + CN(C)CCCOc1ccc(-c2ccc3ncc4c(c3c2)n(C2CCOCC2)c(=O)n4C)cn1 [AZD0156] (first compound max 1 µM, 7x7, partner max 1 µM)	-0.0273	0.0088	0.0119	-0.026	0.0065	-0.0286	0.0153	-0.0063	-0.007	-0.0774	0.0145	-0.0057	0.0254	-0.0382	-0.0016	-0.0309	-0.0174	-0.0389	0.0618	-0.057
CCN(CCO)CCCOc1ccc2c(Nc3cc(CC(=O)Nc4cccc(F)c4)[nH]n3)ncnc2c1 [AZD2811] + O=C(c1cc(Cc2n[nH]c(=O)c3ccccc23)ccc1F)N1CCN(C(=O)C2CC2)CC1 [Olaparib] (first compound max 1 µM, 7x7, partner max 10 µM)	-0.0349	-0.0005	0.0485	0.02	0.0484	0.008	-0.0187	-0.0311	0.0067	-0.0281	-0.0081	-0.0249	-0.0191	-0.021	0.0058	-0.0454	0.0136	0.0128	0.0053	-0.0121
CN(C)CCCOc1ccc(-c2ccc3ncc4c(c3c2)n(C2CCOCC2)c(=O)n4C)cn1 [AZD0156] + CCN(CCO)CCCOc1ccc2c(Nc3cc(CC(=O)Nc4cccc(F)c4)[nH]n3)ncnc2c1 [AZD2811] (first compound max 1 µM, 7x7, partner max 1 µM)	0.0043	-0.0198	-0.0119	0.0059	-0.0054	-0.0076	0.0167	-0.037	0.0718	-0.0111	-0.06	-0.0184	-0.0416	-0.0143	0.0037	-0.04	-0.0167	-0.0251	0.0369	-0.0194
Cc1c2c(nn1C)CSCc1cc(n(C)n1)CSc1cc(c3ccccc3c1)OCCCc1c(C(=O)O)n(C)c3c-2c(Cl)ccc13 [AZD5991] + CC1(C)CCC(CN2CCN(c3ccc(C(=O)NS(=O)(=O)c4ccc(NCC5CCOCC5)c([N+](=O)[O-])c4)c(Oc4cnc5[nH]ccc5c4)c3)CC2)=C(c2ccc(Cl)cc2)C1 [Venetoclax] (first compound max 1 µM, 7x7, partner max 1 µM)	-0.0474	0.0076	0.0088	-0.02	-0.0081	-0.012	0.0312	-0.0209	0.0249	-0.0461	0.0221	0.0042	0.218	-0.0291	0.0865	-0.014	-0.0327	-0.0304	0.0582	-0.0098
CS(=O)(=O)CCNCc1ccc(-c2ccc3ncnc(Nc4ccc(OCc5cccc(F)c5)c(Cl)c4)c3c2)o1 [Lapatinib] + C[C@@H](Oc1cc(-c2cnn(C3CCNCC3)c2)cnc1N)c1c(Cl)ccc(F)c1Cl [Crizotinib] (first compound max 10 µM, 7x7, partner max 10 µM)	-0.0285	-0.0587	-0.0221	0.0216	-0.0589	-0.0294	-0.0237	-0.0293	-0.0465	-0.0517	-0.043	-0.0208	-0.0378	-0.0541	-0.0084	-0.0858	-0.0331	-0.0499	-0.0054	-0.0259
